# According to patent US10017511B2, “Pyrazolopyrimidinones for the treatment of impotence and process for the preparation thereof” (COUNCIL OF SCIENTIFIC & INDUSTRIAL RESEARCH, priority 2014, dated 2018):
# Columns and labels:
# [1] = target: human PDE5A (Homo sapiens, UniProt O76074); experiment: PDE5 enzyme inhibitory assay (PDE Glo Phosphodiesterase Assay)
# Experimental: The assays were performed by following the manufacturer recommended protocol.
# Data analysis was performed with GraphPad Prism®, version 5.00, for Windows using a sigmoidal dose-response (variable slope) equation. Each point represents an average of two replicates per concentration.
# [2] = system: conscious rabbit (length of uncovered penile mucosa); experiment: In vivo efficacy, conscious rabbit model of penile erection; settings: 3 mg/kg intravenous, SNP 0.2 mg/kg 5 min later, measured for an hour, SNP alone values subtracted
# Experimental: . SNP alone was also used as a control and the values obtained were subtracted from both the molecules).
# Nitric oxide is the main neurotransmitter which mediates smooth muscle relaxation by activating the guanylate cyclise during penile erection, which in turn increases the cGMP level.
# This solution was injected into the ear vein of a group of five healthy male rabbit (3-3.5 kg weight) in a volume of 0.5 ml/kg. The event was followed 5 minutes later by another equal volume saline injection containing Sodium nitroprusside (0.2 mg/kg), which acts as a donor of Nitric oxide (NO). Length of uncovered penile mucosa was measured with a sliding caliper at different time points for an hour after administration of the test compounds. The area under the curve (AUC) was calculated by Graph Pad Software. Controls experiments were performed with the SNP alone injections. […]
IC50 [1] [nM],Compound,area under the curve (AUC) of length of uncovered penile mucosa [2]
0.8,"CCCc1nn(C)c2c(=O)[nH]c(-c3cc(S(=O)(=O)N4CCC(=O)CC4)ccc3OCC)nc12 [Compound Aa, 5-(2-ethoxy-5-((4-oxopiperidin-1-yl)sulfonyl)phenyl)-1-methyl-3-propyl-1H-pyrazolo[4,3-d]pyrimidin-7(6H)-one]",722
4.8,"CCCc1nn(C)c2c(=O)[nH]c(-c3cc(S(=O)(=O)N4CCC(O)CC4)ccc3OCC)nc12 [Compound Ab, 5-(2-ethoxy-5-((4-hydroxypiperidin-1-yl)sulfonyl)phenyl)-1-methyl-3-propyl-1H-pyrazolo[4,3-d]pyrimidin-7(6H)-one]",
,"CCCc1nn(C)c2c(=O)[nH]c(-c3cc(S(=O)(=O)N4CCN(C)CC4)ccc3OCC)nc12 [Sildenafil, reference compound]",330
